Data set [1] in a line: Pharmacokinetic profiling of Example compounds in mouse. It counts as in vivo. To be noted: mice. As for the experimental part:
Mice were administered with either 10 mg/kg Example compound 16 (Figure 10A) or 8 mg/kg Example compound 24 (Figure 10B) by subcutaneous injection. Plasma concentration of test compound was measured over the course of 8 hours.

The target of data set [2] is STING (Homo sapiens, UniProt Q86WV6). Kind of data set: Western Blot analysis for STING recovery following Example compound washout in HFF-1 cells. It counts as cell-based. Also noted: host or cells: HFF-1 human foreskin fibroblasts. To be noted: 1µM for 24h, 0-48 hours without test compound. The method, then: Again, the methods described above for HFF-1 cells were applied for cell culture, lysis and western blotting. HFF1 cells were treated with 1µM Compound E16 or E24 or left untreated (UT) for 24h prior washout of test compound, and then incubated for 0-48 hours in DMEM without test compound. At the different time points cell lysates were prepared and assessed by western blot using anti-STING (1:1000) and anti-VCL (1:1000) antibodies. Controls included cells left untreated.
STING (Homo sapiens, UniProt Q86WV6), sequence (Q86WV6 whole entry): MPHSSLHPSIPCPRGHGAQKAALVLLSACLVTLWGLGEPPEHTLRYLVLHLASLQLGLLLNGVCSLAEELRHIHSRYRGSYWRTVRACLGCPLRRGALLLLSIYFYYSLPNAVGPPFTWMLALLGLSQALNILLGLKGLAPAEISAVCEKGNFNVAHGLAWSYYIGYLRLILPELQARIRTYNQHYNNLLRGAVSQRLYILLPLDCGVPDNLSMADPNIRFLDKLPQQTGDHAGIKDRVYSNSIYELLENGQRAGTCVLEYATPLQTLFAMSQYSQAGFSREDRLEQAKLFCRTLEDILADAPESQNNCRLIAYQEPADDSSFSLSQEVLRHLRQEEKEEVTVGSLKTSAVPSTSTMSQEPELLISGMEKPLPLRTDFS

Data set [3] has as its target T1, STING (Mus musculus, UniProt Q3TBT3).
T1 sequence (Q3TBT3 1-378): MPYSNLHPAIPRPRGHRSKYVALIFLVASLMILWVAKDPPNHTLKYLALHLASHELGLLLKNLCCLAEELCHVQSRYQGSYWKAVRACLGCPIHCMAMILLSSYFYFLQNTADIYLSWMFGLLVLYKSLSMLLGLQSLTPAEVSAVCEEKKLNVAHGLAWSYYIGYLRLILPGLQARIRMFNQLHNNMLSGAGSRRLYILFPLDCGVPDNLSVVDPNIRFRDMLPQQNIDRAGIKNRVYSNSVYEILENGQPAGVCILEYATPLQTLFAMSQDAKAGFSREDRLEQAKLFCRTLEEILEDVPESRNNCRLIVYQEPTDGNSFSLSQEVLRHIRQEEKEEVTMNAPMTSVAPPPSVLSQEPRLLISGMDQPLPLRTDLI
The experiment in a line: In vivo effects on cytokine production following STING inhibition/degradation. Also noted: from tissue; host or cells: whole animal (mice); species or system Mice. The method, then: Mice were pre-treated with either Example compound 16 or Example compound 24 in three dose arms; i) pre-treatment at t = -16 hours with 10 mg/kg Example compound and again at t = -2 hours with 10 mg/kg
Example compound; ii) pre-treatment at t = -16 hours only with 10 mg/kg Example compound, or iii) pre-treatment at t = -8 hours only with 10 mg/kg Example compound, prior to treatment with 1 mg/kg diABZi at t = 0 (Figure 11A). IFN-β and CXCL10 (IP-10) levels were analysed 6 hours after treatment with diABZi. One outlier in mice receiving pre-treatment with Example compound 16 was present in treatment arm iii) and is shown in Figures 11B and 11C as an open circle.

The structures appear in SMILES notation.

For the molecule `CCn1nc(C)cc1C(=O)N=c1n(C)c2cc(C(N)=O)ccc2n1CCC(CCn1c(=NC(=O)c2cc(C)nn2CC)n(C)c2cc(C(N)=O)ccc21)OCC(=O)NCCOCCOCCOCCOCCC(=O)NCCOCCOCCOCCOCCNc1cccc2c1C(=O)N(C1CCC(=O)NC1=O)C2=O` (stereo not drawn) [Example 16], the plasma exposure entry in data set [1] (subcutaneous injection (10 mg/kg Example compound 16, 8 mg/kg Example compound 24)) is “prolonged plasma exposure”. Besides, the concentration at 8 h in data set [1] (mouse, plasma, sc, 10 mg/kg subcutaneous injection, read-out: plasma concentration 8 hours after injection) is approximately 100 nM. The “STING protein recovery after washout (Western Blot, Figure 3)” value on STING [2] was “failed to recover to pre-treatment levels after 48 hours”. In addition, the IFN-β expression entry is given as “appears to be completely abolished” at STING [3] (dose arm i): 10 mg/kg at t = -16 hours and t = -2 hours, 1 mg/kg diABZi at t = 0, 6 hours after diABZi); “significant inhibition of IFN-β” on STING [3] (dose arms i) and ii) as printed, 10 mg/kg, 1 mg/kg diABZi, 6 hours after). At STING [3] (each dose arm i)-iii), 10 mg/kg, 1 mg/kg diABZi, 6 hours after), the CXCL10 expression result was “significantly reduced CXCL10 expression”.

(Values after EP4663632A1, “COMPOUNDS USEFUL FOR THE MODULATION OF THE ACTIVITY OF STING” (Sulis Therapeutics ApS, priority 2024, dated 2025).)
